# Results: publication PMC9599520, “The Membrane Activity of the Amphibian Temporin B Peptide Analog TB_KKG6K Sheds Light on the Mechanism That Kills Candida albicans” (mSphere, 2022)
# Counter-ions that a name gives are not always drawn. Like-named read-outs stand apart in the source and are kept apart here. Where no end group is shown, it is not given here.
# Key:
# [1] = test system: C. albicans cell membrane; test: Membrane depolarization assay with DiSC3(5) dye; type: cell-based, Candida albicans; settings: 1 × 10^6 cells/mL, 30°C, 60 min, PCγ^C-terminal 32 μM
# [2] = cited from earlier work
# C. albicans (CBS 5982) = test: microbe, parasite or virus in culture; type: cell-based, Candida albicans; settings: for IC90: Candida albicans, CBS5982, 24 h, 0.05× PDB, 30°C, 24 h, OD620, read-out: IC90 (inhibitory concentration that reduced growth by ≥90%)
# [3] = Vesicle leakage assay (ANTS-DPX), all LUVs; type: biochemical; settings: 32 μM peptide, negative control, 1% Triton X-100 = 100%
# [4] = Vesicle leakage assay, PG; type: biochemical; settings: PG-LUVs; 32 μM peptide (1.5:1), negative control; 50 μM lipid, 30 min, 37°C; mean ± SD
# [5] = Vesicle leakage assay, PG-PE-CL; type: biochemical; settings: PG-PE-CL-LUVs; 32 μM peptide (1.5:1), negative control; 50 μM lipid, 30 min, 37°C; mean ± SD
# [6] = Vesicle leakage assay, PC; type: biochemical; settings: PC-LUVs; 32 μM peptide (1.5:1), negative control; 50 μM lipid, 30 min, 37°C; mean ± SD
# [7] = Vesicle leakage assay, PC-sphingomyelin; type: biochemical; settings: PC-sphingomyelin-LUVs; 32 μM peptide (1.5:1), negative control; 50 μM lipid, 30 min, 37°C; mean ± SD
# [8] = Vesicle leakage assay, PC-ceramide; type: biochemical; settings: PC-ceramide-LUVs; 32 μM peptide (1.5:1), negative control; 50 μM lipid, 30 min, 37°C; mean ± SD
# [9] = Vesicle leakage assay, PC-PI; type: biochemical; settings: PC-PI-LUVs; 32 μM peptide (1.5:1), negative control; 50 μM lipid, 30 min, 37°C; mean ± SD
# [10] = Vesicle leakage assay, PC-PE; type: biochemical; settings: PC-PE-LUVs; 32 μM peptide (1.5:1), negative control; 50 μM lipid, 30 min, 37°C; mean ± SD
# [11] = Vesicle leakage assay, PC-PS; type: biochemical; settings: PC-PS-LUVs; 32 μM peptide (1.5:1), negative control; 50 μM lipid, 30 min, 37°C; mean ± SD
# [12] = Vesicle leakage assay, PC-ergosterol; type: biochemical; settings: PC-ergosterol-LUVs; 32 μM peptide (1.5:1), negative control; 50 μM lipid, 30 min, 37°C; mean ± SD
# [13] = Vesicle leakage assay, PC-PE-ergosterol; type: biochemical; settings: PC-PE-ergosterol-LUVs; 32 μM peptide (1.5:1), negative control; 50 μM lipid, 30 min, 37°C; mean ± SD
# [14] = Vesicle leakage assay, PC-PS-ergosterol; type: biochemical; settings: PC-PS-ergosterol-LUVs; 32 μM peptide (1.5:1), negative control; 50 μM lipid, 30 min, 37°C; mean ± SD
# [15] = Vesicle leakage assay, PC-CL; type: biochemical; settings: PC-CL-LUVs; 32 μM peptide (1.5:1), negative control; 50 μM lipid, 30 min, 37°C; mean ± SD
# C. albicans cells = test: Uptake mechanism (fluorescence microscopy, 4°C or CCCP); type: cell-based, Candida albicans; settings: 2 μM
compound,measurement,setting,value
Triton X-100 [reference compound],"membrane depolarization, DiSC3(5) fluorescence intensity",[1]; […],fast and sustained increase in fluorescence intensity
Temporin B [reference compound],hydrophobicity (hydrophobic amino acids),[2],61%
same,positive net charge,[2]; pH 7,+0.9
"CCCCCCCCN=c1ccn(CCCCCCCCCCn2ccc(=NCCCCCCCC)cc2)cc1 [Octenidine, N,N′-(1,10 decanediyldi-1[4H]-pyridinyl-4-ylidene)-bis-(1-octanamine) dihydrochloride]",IC90,C. albicans (CBS 5982); 1 × 10^4 cells/mL,1 µM
same,IC90,C. albicans (CBS 5982); 1 × 10^6 cells/mL,2 µM
"CGGASCRG [PCγ^C-terminal, negative control peptide CGGASCRG derived from the C-terminal part of Penicillium chrysogenum antifungal protein C (PAFC), reference compound]",fungal growth inhibition,C. albicans (CBS 5982); peptide concentration 0 to 32 μM,No fungal growth inhibition
same,"membrane depolarization, DiSC3(5) fluorescence intensity","[1]; TB analog 0.5, 1, 2 μM, Triton X-100 1% (wt/vol)",No membrane depolarization
same,% Leakage,[3],≤ 2%
same,% Leakage,[4],1.9 ± 1%
same,% Leakage,[5],−1.2 ± 1.6%
same,% Leakage,[6],1.4 ± 1.4%
same,% Leakage,[7],0.6 ± 0.8%
same,% Leakage,[8],1.3 ± 0.2%
same,% Leakage,[9],0.4 ± 0.5%
same,% Leakage,[10],1.4 ± 0.6%
same,% Leakage,[11],0.9 ± 2.7%
same,% Leakage,[12],1.1 ± 0.9%
same,% Leakage,[13],1.7 ± 2.0%
same,% Leakage,[14],2.0 ± 1.4%
same,% Leakage,[15],0.7 ± 0.4%
"BODIPY-PAFB: P. chrysogenum antifungal protein B (PAFB) conjugated with the green fluorophore BODIPY; control for energy-dependent uptake (LSKFGGECSLKHNTCTYLKGGKNHVVNCGSAANKKCKSDRHHCEYDEHHKRVDCQTPV; cysteine pairing not given here; also: BODIPY label, position not given here; UniProt D0EXD3 35-92, looked up)",uptake into C. albicans cells,"C. albicans cells; 30°C, standard condition, 45 min for BODIPY-PAFB",taken up by C. albicans
same,uptake into C. albicans cells with reduced respiration and metabolism,"C. albicans cells; 4°C, or 30°C with 100 μM CCCP, 15 min (FITC-TB_KKG6K), 45 min (BODIPY-PAFB)",no internalization
